In brackets after ≈: the same amount, converted by molar mass. Read-outs that look alike come from different tables or passages of the source.
Legend:
[1] = test system: E. coli transformed with IPTG-inducible antisense clones (AS-rplW, AS-rplLrplJ, AS-elaD, AS-visC, AS-yohH, AS-atpB/E); test: Cell-based assay: antibiotic sensitivity of E. coli antisense clones pretreated with IPTG (Example 9)
Source text: The effectiveness of the above cell-based assay was validated using constructs expressing antisense RNA to the proliferation required E. coli genes rplL, rplJ, and rplW encoding ribosomal proteins L7/L12, L10 and L23 respectively. These proteins are part of the protein synthesis apparatus of the cell and as such are required for proliferation. These constructs were used to test the effect of antisense expression on cell sensitivity to antibiotics known to bind to the ribosome and thereby inhibit protein synthesis. Constructs expressing antisense RNA to several other genes (elaD, visC, yohH, and atpE/B), the products of which are not involved in protein synthesis were used for comparison.
First, pLEX5BA (Krause et al., J. Mol. Biol. 274: 365 (1997), the disclosure of which is incorporated herein by reference in its entirety) expression vectors containing antisense constructs to either rplW or to elaD were introduced into separate E. coli cell populations. Vector introduction is a technique well known to those of ordinary skill in the art. The expression vectors of this example contain IPTG inducible promoters that drive the expression of the antisense RNA in the presence of the inducer. However, those skilled in the art will appreciate that other inducible promoters may also be used. Suitable expression vectors are also well known in the art. The E. coli antisense clones to genes encoding ribosomal proteins L7/L12, L10 and L23 were used to test the effect of antisense expression on cell sensitivity to the antibiotics known to bind to these proteins. […]
The cell populations were exposed to a range of IPTG concentrations in liquid medium to obtain the growth inhibitory dose curve for each clone (FIG. 1). First, seed cultures were grown to a particular turbidity that is measured by the optical density (OD) of the growth solution. […] The cells were grown for up to 15 hours and the extent of growth was determined by measuring the optical density of the cultures at 600 nm. […]

[2] = test system: Bacterial cells expressing antisense nucleic acid complementary to rplL and rplJ (50S ribosomal subunit proteins); test: microbe, parasite or virus in culture; type: cell-based, E. coli; details: for IC50: Escherichia coli; for Fold Increase in Sensitivity: IC50 −IPTG versus +IPTG (400 μM); for Sensitivity Increased?: significant decrease in IC50 in the presence of inducer IPTG
Protocol: Two-fold dilution series of antibiotics with a known mechanism of action are generated in the culture media selected for further assay development that has been supplemented with the antibiotic used to maintain the construct. A panel of test antibiotics known to act on different pathways is tested side by side with three to four wells being used to evaluate the effect of a test antibiotic on cell growth at each concentration. Equal volumes of test antibiotic and cells are added to the wells of a 384 well microtiter plate and mixed. Cells are prepared as described above using the media selected for assay development supplemented with the antibiotic required to maintain the antisense construct and are diluted 1:100 in identical media immediately prior to addition to the microtiter plate wells. For a control, cells are also added to several wells that contain the solvent used to dissolve the antibiotics but no antibiotic. Cell growth is monitored continuously by incubation at 37° C. in a microtiter plate reader monitoring the OD600 of the wells over an 18-hour period. […] A plot of percent inhibition against log[antibiotic concentration] allows extrapolation of an IC50 value for each antibiotic.
The culture media selected for use in the assay is supplemented with inducer at concentrations shown to inhibit cell growth by 50% and 80% as described above and the antibiotic used to maintain the construct. Two fold dilution series of the panel of test antibiotics used above are generated in each of these media. Several antibiotics are tested side by side with three to four wells being used to evaluate the effects of an antibiotic on cell growth at each concentration, in each media. Equal volumes of test antibiotic and cells are added to the wells of a 384 well microtiter plate and mixed. Cells are prepared as described above using the media selected for use in the assay supplemented with the antibiotic required to maintain the antisense construct. […] Immediately prior to addition to the microtiter plate wells, the cultures are adjusted to an appropriate OD600 (typically 0.002) by dilution into warm (37° C.) sterile media supplemented with identical concentrations of the inducer and antibiotic used to maintain the antisense construct. For a control, cells are also added to several wells that contain solvent used to dissolve test antibiotics but which contain no antibiotic. Cell growth is monitored continuously by incubation at 37° C. in a microtiter plate reader monitoring the OD600 of the wells over an 18-hour period. […] A plot of percent inhibition against log[antibiotic concentration] allows extrapolation of an IC50 value for each antibiotic.
Antibiotics of various chemical classes and modes of action were purchased from Sigma Chemicals (St. Louis, Mo.). Stock solutions were prepared by dissolving each antibiotic in an appropriate aqueous solution based on information provided by the manufacturer. The final working solution of each antibiotic contained no more than 0.2% (w/v) of any organic solvent. To determine their potency against a bacterial strain engineered for expression of an antisense complementary to a proliferation-required gene encoding 50S ribosomal protein, each antibiotic was serially diluted two or three fold in growth medium supplemented with the appropriate antibiotic for maintenance of the anti-sense construct. At least ten dilutions were prepared for each antibiotic. 25 μL aliquots of each dilution were transferred to discrete wells of a 384-well microplate (the assay plate) using a multi-channel pipette. Quadruplicate wells were used for each dilution of an antibiotic under each treatment condition (plus and minus inducer). Each assay plate contained twenty wells for cell growth controls (growth media replacing antibiotic), ten wells for each treatment (plus and minus inducer, in this example IPTG).

[3] = test system: Salmonella typhimurium; test: Growth inhibition by induced E. coli antisense RNA in Salmonella typhimurium; type: cell-based; set-up: key: +: a positive in Table V below means that at least 10 fold more cells were required to observe a colony on the induced plate than on the non-induced plate; −: If there was no effect of antisense RNA expression in a microorganism, the clone is minus in Table V below; details: antisense RNA expression induced with IPTG, serial dilution plating
Protocol: (§1) To study the effects of transcriptional induction in liquid medium, growth curves were carried out by back diluting cultures 1:200 into fresh media with or without 1 mM IPTG and measuring the OD450 every 30 minutes (min). To study the effects of transcriptional induction on solid medium, 10^2, 10^3, 10^4, 10^5, 10^6, 10^7 and 10^8 fold dilutions of overnight cultures were prepared. Aliquots of from 0.5 to 3 μl of these dilutions were spotted on selective agar plates with or without 1 mM IPTG. After overnight incubation, the plates were compared to assess the sensitivity of the clones to IPTG.
(§2) Molecule No. EcXA190, encoding a portion of the b3052 gene of Escherichia coli, was either transformed directly into Enterobacter cloacae, Salmonella typhimurium and/or Klebsiella pneumoniae or subcloned into an expression vector functional in these species and the subclones transformed into these organisms. Suitable expression vectors are well known in the art. […] After growth in liquid culture, cells were plated at various serial dilutions and a score determined by calculating the log difference in growth for INDUCED vs. UNINDUCED antisense RNA expression as determined by the maximum 10 fold dilution at which a colony was observed. […]

[4] = test system: Klebsiella pneumoniae; test: Growth inhibition by induced E. coli antisense RNA in Klebsiella pneumoniae; type: cell-based; set-up: key: +: a positive in Table V below means that at least 10 fold more cells were required to observe a colony on the induced plate than on the non-induced plate; −: If there was no effect of antisense RNA expression in a microorganism, the clone is minus in Table V below; details: antisense RNA expression induced with IPTG, serial dilution plating
Outline: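 An E. coli antisense fragment (b3052 portion), or other E. coli-inhibitory antisense clones, was expressed in each species on IPTG induction (1 mM). Serial 10-fold dilutions were spotted on selective agar with or without IPTG overnight. The score is the log difference in maximal colony-forming dilution, induced vs uninduced (0 = no effect; positive = at least 10-fold).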

[5] = test system: Enterobacter cloacae; test: Growth inhibition by induced E. coli antisense RNA in Enterobacter cloacae; type: cell-based; set-up: key: +: a positive in Table V below means that at least 10 fold more cells were required to observe a colony on the induced plate than on the non-induced plate; −: If there was no effect of antisense RNA expression in a microorganism, the clone is minus in Table V below; details: antisense RNA expression induced with IPTG, serial dilution plating
Protocol: as §1, §2

[6] = test system: E. coli; test: Inhibition of E. coli proliferation after IPTG induction of antisense clones (growth curves, dilution spotting, score); type: cell-based, Escherichia coli; details: IPTG induction (1 mM)
Protocol: as §1
Of the numerous clones tested, some clones were identified as containing a sequence that inhibited E. coli growth after IPTG induction. […]
as §2, with “organisms.” for “organisms. Suitable expression vectors are well known in the art.”

| Molecule | IC50 ([2]; read-out: IC50 (+IPTG)) [µg/mL] | IC50 ([2]; read-out: IC50 (−IPTG)) [µg/mL] | Fold Increase in Sensitivity [2] | Sensitivity Increased? [2] | effect of antisense expression on E. coli growth/proliferation [6] | also measured |
| --- | --- | --- | --- | --- | --- | --- |
| CC[C@H]1OC(=O)[C@H](C)[C@@H](O[C@H]2C[C@@](C)(OC)[C@@H](O)[C@H](C)O2)[C@H](C)[C@@H](O[C@@H]2O[C@H](C)C[C@H](N(C)C)[C@H]2O)[C@](C)(O)C[C@@H](C)C(=O)[C@H](C)[C@@H](O)[C@]1(C)O [Erythromycin] | 0.187 (≈ 0.255 µM) | 7.47 (≈ 10.2 µM) | 40 | Yes |  | sensitivity to antibiotic ([1]; initial experiments, clones with antisense to non-protein synthesis genes elaD, atpB/E and visC): do not; sensitivity to antibiotic ([1]; initial experiments, clones with antisense to protein synthesis genes (L7/L12 & L10, L7/L12 alone, L22, L18, rRNA, Elongation Factor G)): increased sensitivity |
| CCn1cc(C(=O)O)c(=O)c2ccc(C)nc21 [Nalidixic acid] | 6.03 (≈ 25.9 µM) | 6.97 (≈ 30 µM) | 1 | No |  | sensitivity to antibiotic ([1]; cells/clone expressing antisense to rplL and rplJ (L7/L12, L10), IPTG induced): does not show increased sensitivity |
| EcXA172: antisense clone insert to E. coli b2345 (nucleic acid, listed as Escherichia coli) antisense: AAAACTCACCTTTTTTGTTGTTATCCCTCAATTACCACAAGTAAAAGGAGATAAACCGACAATGACCTAGACGTAATTATGTAAAAATACTGATGTTCGTCACTGACTATTTCCGATATTCAGCTGTTGAAAAATCAAAAAACTGGAAAAATAATTTTAAATATCAT |  |  |  |  |  | Sensitivity of S. typhimurium to antisense nucleic acid (growth inhibition, induced vs. uninduced) [3]: −; Sensitivity of K. pneumoniae to antisense nucleic acid (growth inhibition, induced vs. uninduced) [4]: −; Sensitivity of E. cloacae to antisense nucleic acid (growth inhibition, induced vs. uninduced) [5]: − |
| EcXA134: antisense clone insert to E. coli sspA (nucleic acid, listed as Escherichia coli) antisense: TGTTCGATCTCGAAACTTACACCTTTCTCAGCCAGCACAATGCGGACCTGATGGCTATAGATGTCAGTAGGACCGGAAAACAGCGTCATTACCCGAACGTTTGTTGGC |  |  |  |  | reduction in cell growth |  |
| EcXA161: antisense clone insert to E. coli sbcD (nucleic acid, listed as Escherichia coli) antisense: GAAACTCAGTGGAATGGGGGAGCCGCAATAGCGAACATGTTCCATGCCGCCAATAATCTGTGCGCGGTGAATATGCCCGAGCGCGATGTAGTCGGCTGGTGGAAAGTTTTGTGCCGGAAACGCGTCCAGCGTGCCAATATAAATGTCACGCACGGCGTCACTTTTACTGGCCCCCACGGTCGTTAAATGTCCCGTGGCGATGATGGGCAGAGGCTGATCGCCGCGCAGTTTGCAGGCATCGGCATAGTGT |  |  |  |  | reduction in cell growth |  |
